Assay results published in BindingDB's records for patent US9796706 (Imago Pharmaceuticals, 2017).

Experiments:
Assay in all cases: HTRF Assay
[1] = target: Mitogen-activated protein kinase 9 (Homo sapiens, UniProt P45984)
Description: (§1) The aJNK solution (20 μl/well) was added to the plate and the plate was shaken. The enzyme was incubated with the compound at RT for 10 min.(5) ATP/substrate solution preparation: ATP and substrate stocks were thawed on ice. […] The ATP/substrate (20 μl/well) was added to the plate and the plate was shaken. The plate was incubated at RT for 15 min. Note: In an exemplary assay, the final ATP concentration was about 1 mM.(6) EDTA preparation: 30 mM EDTA was prepared using 0.5M EDTA stock and assay buffer #1. The EDTA (10 μl/well) was added to the plate to quench the enzyme reaction and the plate was shaken well.(7) Detection reagent preparation: Eu-63 and SA-XL stocks were thawed on ice. […] The Eu-63/SA-XL solution (20 μl/well) was added to the plate and the plate was shaken. The plate was incubated at RT for 1 hr before reading the plate on LJL using ratiometric method named HTRF.

[2] = target: Mitogen-activated protein kinase 10 (Homo sapiens, UniProt P53779)
Description: as §1

[3] = target: Mitogen-activated protein kinase 8 (Homo sapiens, UniProt P45983)
Description: as §1

Measured: IC50

Chain of Mitogen-activated protein kinase 10 (P53779 whole entry): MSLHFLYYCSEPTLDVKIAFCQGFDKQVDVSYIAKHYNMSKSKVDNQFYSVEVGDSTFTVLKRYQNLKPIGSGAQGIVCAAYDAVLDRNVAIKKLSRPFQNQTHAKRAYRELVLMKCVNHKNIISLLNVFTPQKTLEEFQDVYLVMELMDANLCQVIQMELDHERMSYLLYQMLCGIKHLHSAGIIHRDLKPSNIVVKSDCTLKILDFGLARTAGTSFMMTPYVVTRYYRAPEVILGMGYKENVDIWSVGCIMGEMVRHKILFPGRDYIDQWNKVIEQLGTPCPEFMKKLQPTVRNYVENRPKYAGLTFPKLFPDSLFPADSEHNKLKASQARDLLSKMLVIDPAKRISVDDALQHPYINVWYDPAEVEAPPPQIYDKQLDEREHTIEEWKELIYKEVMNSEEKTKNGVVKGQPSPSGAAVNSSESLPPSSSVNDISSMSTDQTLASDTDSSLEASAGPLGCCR
Chain of Mitogen-activated protein kinase 9 (P45984 whole entry): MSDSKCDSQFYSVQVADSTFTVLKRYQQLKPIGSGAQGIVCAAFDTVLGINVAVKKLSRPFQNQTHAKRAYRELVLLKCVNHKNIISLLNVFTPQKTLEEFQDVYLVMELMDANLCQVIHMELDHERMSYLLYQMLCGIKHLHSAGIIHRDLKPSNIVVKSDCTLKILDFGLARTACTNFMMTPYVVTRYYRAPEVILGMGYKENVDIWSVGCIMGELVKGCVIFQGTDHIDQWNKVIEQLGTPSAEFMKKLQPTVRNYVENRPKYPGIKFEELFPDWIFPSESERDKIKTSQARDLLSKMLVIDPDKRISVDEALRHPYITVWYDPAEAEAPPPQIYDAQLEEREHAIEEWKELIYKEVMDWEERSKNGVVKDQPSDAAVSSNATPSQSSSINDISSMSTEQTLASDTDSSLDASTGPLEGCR
Chain of Mitogen-activated protein kinase 8 (P45983 whole entry): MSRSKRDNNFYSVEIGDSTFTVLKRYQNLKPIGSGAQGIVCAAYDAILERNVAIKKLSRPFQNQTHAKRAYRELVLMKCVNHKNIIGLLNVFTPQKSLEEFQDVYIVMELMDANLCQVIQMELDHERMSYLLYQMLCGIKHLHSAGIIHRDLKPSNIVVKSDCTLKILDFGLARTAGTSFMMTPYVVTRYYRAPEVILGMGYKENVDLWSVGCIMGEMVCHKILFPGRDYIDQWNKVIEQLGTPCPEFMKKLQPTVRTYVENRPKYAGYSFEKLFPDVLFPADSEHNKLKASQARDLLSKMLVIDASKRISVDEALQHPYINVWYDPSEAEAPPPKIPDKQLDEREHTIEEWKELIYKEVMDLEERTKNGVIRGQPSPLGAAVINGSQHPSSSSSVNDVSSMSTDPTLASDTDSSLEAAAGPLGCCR

CN(C)CCN(C(=O)Cn1c(=O)ccc2cc(C(F)(F)F)ccc21)c1scc(Cl)c1-c1nc[nH]n1 [US9796706, Compound 158]
in the range around 5.05 µM: all assays above

O=C(Cn1c(=O)ccc2cc(C(F)(F)F)ccc21)N(CCCN1CCCC1)c1scc(Cl)c1-c1nc[nH]n1 [US9796706, Compound 162]
in the range around 5.05 µM: all assays above
